# Measured values from patent publication US20080213743A1, “Method for adjusting sedimentation rates” (priority 2007, published 2008).
# Test system: bone marrow aspirate
# Assay: Centrifugal fractionation of bone marrow aspirate with the whole-blood platelet rich plasma protocol; analysis of ten milliliter concentrate sample
# Format: cell-based
# Details: 60 mls bone marrow aspirate collected into heparin, 8-10 mls of ACD added or heparin alone, two centrifugations
# Procedure: In one specific example of the invention, 60 mls of bone marrow aspirate is collected into a bag or syringe having heparin as the anticoagulant. A bag is preferred to be able to inspect the collected marrow. Then, 8-10 mls of ACD are added to the collected aspirate to adjust the sedimentation rate of the components, particularly the red blood cells. The aspirate mixture is then placed in the first chamber of a two-chamber processing unit and subjected to centrifugation according to a known protocol designed to fractionate whole blood for the purpose of making platelet rich plasma as described in U.S. Pat. No. 6,398,972. The supernatant is then decanted to the second chamber and again subjected to centrifugation according to the said process designed to separate platelets to make platelet rich plasma. Supernatant from the second centrifugation is withdrawn to leave a ten milliliter concentrate sample remaining in the chamber. […] In contrast, when same process is followed with heparin alone, the sample is 3% Hct with a TNC of 32.4×10^3/μl.
substance,measurement,value
heparin,Hct of concentrate sample,3 % Hct
same,total nucleated cell count (TNC) of concentrate sample,32400 µL⁻¹
